What was measured:
[1] = system: IL-1β; experiment: Anti-IL-1 activity (extracellular substrates of rat cartilage cells); format: cell-based; conditions: 72 h, IL-1β 0.2 ng/ml, 3 days, read-out: IL-1 inhibitory activity (%)
Experimental: Rat cartilage cells were prepared according to the known method [Fujio Suzuki et al., Sin Seikagaku Jikken Kohza, 18, p.871-875 (1990)] and cultivated in Dulbecco's Medium containing 10% fetal bovine serum. After 8 days, various concentrations of a test drug and IL-1β (0.2 ng/ml) were added, and the cells were cultivated for additional 3 days. The amount of extracellular substrates thus produced was determined.
Although IL-1β inhibits the synthesis of extracellular substrates of cartilage cells, addition of the drug inhibits the IL-1 activity and the amount of extracellular substrates synthesized was recovered.

[2] = system: Antigen-responsive T cell; experiment: Antigen-Responsive T Cell Growth Inhibitory Activity (PPD-stimulated 3H-Tdr incorporation); format: cell-based, Lewis rats; conditions: PPD 2 μg/ml, Lewis rat T cells, read-out: Antigen-responsive T cell growth inhibitory rate (%)
Experimental: Antigen-Responsive T Cell Growth Inhibitory Activity
According to the method of Test Example 1, adjuvant arthritis was induced in Lewis rats (male, 7 weeks old). After 14 days, lymphonodi inguinales were excised. Then, a single-cell suspension was prepared by using RPMI-1640 medium containing 5% fetal bovine serum and then incubated at 37° C. for 1 hour in a nylon wool column. The cells were eluted from the column with the same medium. The non-adsorptive cell-fraction was used as T cells.
On the other hand, spleen cells were taken out from unsensitized Lewis rats (male, 8 to 9 weeks old) and irradiated with soft X-rays (20,000 R). To the spleen cells (1×10^5 cells/well) were added the above T cells (5×10^5 cells/well), PPD (Purified Protein Derivatives; final concentration: 2 μg/ml) and 2% Lewis rat serum (treated at 56° C. for 30 minutes). The mixture was incubated at 37° C. for 72 hours in a 5% carbonic acid incubator. Further, ^3 H-Tdr (0.5 μCi/well) was added followed by incubation for 24 hours. The cells were recovered, and the radioactivity of ^3 H-Tdr incorporated into the cells was determined. The test drug was added to the cell suspension just before the addition of PPD, and effects on incorporation of ^3 H-Tdr into the cells were observed.

[3] = system: mice; experiment: Oral toxicity in mice; format: in vivo; conditions: 300 mg/kg administered orally to mice
Experimental: The compounds of the present invention have low toxicity. For example, when 300 mg/kg of the compounds prepared in Examples 36, 45, 47, 54 and 64 were administered orally to mice, no mice died. Therefore, the compounds of the present invention are useful as an anti-inflammatory agent, particularly an agent for treating arthritis producing inflammatory symptoms, in humans and other mammals.

[4] = system: Rat Carrageenin Paw Edema; experiment: Rat Carrageenin Paw Edema Inhibitory Activity; format: in vivo; conditions: Jcl:SD rats, 50 mg/kg orally, 3 hours after carrageenin
Experimental: Rat Carrageenin Paw Edema Inhibitory Activity
The volume of a planter part of a right hind leg of Jcl:SD rats (male, 6 weeks old) was measured, and then suspension of a test drug (50 mg/kg) in 5% acacia was administered orally. Then water was administered additionally so that the total amount of administered liquid became 5 ml/rat. After 1 hour, a suspension (0.05 ml) containing 1% carrageenin in physiological saline was injected intradermally into the plantar to induce swelling [Winter, C. A. et al; Proc. Soc. Exp. Biol. Med., 111, 544 (1962)]. The volume of the right hind leg was measured again 3 hours after the carrageenin injection, and swelling inhibitory rate was calculated from the difference in the volumes before and after the injection.

[5] = system: mouse phenylquinone writhing; experiment: Analgesic Activity in Mice (phenylquinone writhing model); format: in vivo; conditions: Slc:ICR mice, 50 mg/kg orally, 20 minutes
Experimental: Analgesic Activity in Mice
A drug (50 mg/kg) suspended in 5% acacia was administered orally to Slc:ICR mice (male, 4 weeks old). After 30 minutes, a 0.02% phenylquinone solution (0.1 ml/[…]) in 5% ethanol was administered intraperitoneally. Writhing and stretching reactions for 20 minutes after the injection were calculated for each mouse to evaluate analgesic activity of the test drug [Siegmund, E. et al.; Proc. Soc. Exp. Biol. Med., 95, 729 (1957)].

CCOC(=O)c1c(CSc2nc3ccccc3c(=O)[nH]2)nc2cc(OC)c(OC)cc2c1-c1ccc(OC)c(OC)c1 [Example 64, ethyl 6,7-dimethoxy-4-(3,4-dimethoxyphenyl)-2-[(3,4-dihydro-4-oxoquinazolin-2-yl)thiomethyl]quinoline-3-carboxylate]
inhibition at 1 µM ([1]; 1 μM): 23% | inhibition at 10 µM ([1]; 10 μM): 50% | inhibition at 1 µM ([2]; 1 μM): 53% | inhibition at 10 µM ([2]; 10 μM): 78% | mortality [3]: no mice died | Swelling inhibitory rate (%) [4]: 36% | Inhibitory rate (%) [5]: 27%
